System: BN-130 strain
Assay: Susceptibility of the BN-130 strain to antibiotics
Type: cell-based, Pseudomonas stutzeri

Molecule | Susceptibility to antibiotics
O=C(N[C@H](CO)[C@H](O)c1ccc([N+](=O)[O-])cc1)C(Cl)Cl [Chloramphenicol] | Susceptible to a medium degree
CC1(C)S[C@@H]2[C@H](NC(=O)Cc3ccccc3)C(=O)N2[C@H]1C(=O)O [Penicillin] | Resistant
CN(C)[C@@H]1C(O)=C(C(N)=O)C(=O)[C@@]2(O)C(O)=C3C(=O)c4c(O)cccc4[C@@](C)(O)[C@H]3C[C@@H]12 [Tetracycline] | Susceptible
CC1(C)S[C@@H]2[C@H](NC(=O)[C@H](N)c3ccccc3)C(=O)N2[C@H]1C(=O)O [aminobenzylpenicillin] | Resistant
O=C(Cc1cccs1)N[C@@H]1C(=O)N2C(C(=O)[O-])=C(C[n+]3ccccc3)CS[C@H]12 [cephaloridine] | Resistant
NC[C@H]1O[C@H](O[C@H]2[C@H](O)[C@@H](O[C@H]3O[C@H](CO)[C@@H](O)[C@H](N)[C@H]3O)[C@H](N)C[C@@H]2N)[C@H](O)[C@@H](O)[C@@H]1O [kanamycin] | Susceptible to a medium degree
CCn1cc(C(=O)O)c(=O)c2ccc(C)nc21 [nalidixic acid] | Susceptible
[H]/N=C(/N)N[C@H]1[C@H](O)[C@@H](O)[C@H](O[C@@H]2O[C@@H](C)[C@](O)(C=O)[C@H]2O[C@@H]2O[C@@H](CO)[C@H](O)[C@@H](O)[C@@H]2NC)[C@@H](N/C(N)=N\[H])[C@@H]1O [streptomycin] | Susceptible to a medium degree
colistin | Susceptible
polymixin | Susceptible
